Test system: MCF-7
Experiment: Apoptotic assay, Annexin V/PI analysis in MCF-7
Format: cell-based
Conditions: MCF-7, Annexin V/PI, % given only in Figure 5
Procedure: In comparison to the control cells, the apoptotic assay employing Annexin V/PI analysis for compound 6i generated a substantial amount of early and late apoptosis in MCF-7. Compound 6i induced early apoptosis in MCF-7 at rate of 22.05, compared with the control MCF-7 (0.43) (Table 6 and Figure 5).
These were performed using the approach described in the Supplementary Data, page 44 [46]. […]
thoroughly, and then centrifuge at 4°C to collect contents to the bottom of the tube. Chill on ice before using. Centrifuge again briefly at 4°C if needed. Preparation of a reaction cocktail is crucial in quantitative PCR applications to reduce pipetting errors and maximize assay precision and accuracy. Assemble the reaction cocktail with all required components except sample template (total RNA) and dispense equal aliquots into each reaction tube. Add target sample to each reaction as the final step. Addition of sample as 5–10 μl volumes will improve assay precision. Replicate samples should be assembled as a master mix with a single addition of sample template.
Cell cycle analysis and apoptosis
Transfer the previously prepared cells from 4 °C to the bench-top and equilibrate to room temperature. Gently re-suspend cells by inverting the tube or by gentleup and down pipetting.
There may be visible thin salt crystals in the tube but this will not affect the sedimentation of the cells in the next step. Pellet the cells at 500 x g for 5 minutes. Carefully aspirate the supernatant without disrupting the pellet. It is better to incompletely remove the supernatant than to accidently aspirate part of the pellet and lose cells. Wash the cells by gently resuspending in 1 mL 1X PBS.
Again, pellet the cells at 500 x g for 5 minutes and carefully remove the supernatant. Gently resuspend the cell pellet in 200 μL 1X Propidium Iodide + RNase Staining Solution. Then ensure that the cells are fully resuspended. Incubate at 37 °C in the dark for 20 – 30 minutes. Place tubes on ice (still in the dark) and prepare for flow cytometry analysis. Gently resuspend cells that settled during the incubation by pipetting up and down. If desired, pass cells through an appropriate filter (not provided) to remove cell aggregates. Run samples on flow cytometer: Set appropriate FSC vs. SSC gates to exclude debris and cell aggregates. Collect Propidium iodide fluorescence in FL2.
The Protein Data Bank (http://www.rcsb.org) was utilized to obtain the 3D structures of […]
was used to conduct docking studies on established analogues with the VEGFR-2 active site. This program was run with a searching grid that was stretched across ligand molecules, with box […]
parameters set to default. The highest scoring posit ion for every compound was chosen after docking it into the crystal structure. […]

CCCCN1C(=O)C(=NNC(=O)c2c(C)nc3sccn23)c2ccccc21 [Compound 6i, N′-(1-Butyl-2-oxoindolin-3-ylidene)-6-methylimidazo[2,1-b]thiazole-5-carbohydrazide]
Apoptosis Late (control 0.11): 7.61% | Apoptosis Early (control 0.43): 22.05% | Necrosis (control 1.37): 3.15% | Apoptosis Total (control 1.91): 32.81%

From publication PMC10892120, “Design, Synthesis and Biological Assessment of N′-(2-Oxoindolin-3-ylidene)-6-methylimidazo[2,1-b]thiazole-5-carbohydrazides as Potential Anti-Proliferative Agents toward MCF-7 Breast Cancer” (Pharmaceuticals, 2024)
